# In US12145930B1, “4-thiazolidinone derivatives as EGFR inhibitors for anti-tumor activity” (KING FAISAL UNIVERSITY, priority 2024, dated 2024):
# “Also recorded” adds a separate entry of the source.
# Tests used:
# EGFR = EGFR (Homo sapiens, UniProt P00533); assay: EGFR inhibition assay (Alpha Screen system); assay type: biochemical; conditions: Gefitinib as standard
# [1] = test system: PC3 (prostate) carcinoma cell line; assay: antiproliferative growth assay, PC3; assay type: cell-based, human; conditions: PC3 prostate carcinoma cells
# Source text: It is noteworthy that most of these compounds belong to the thiazolidine library.
# [2] = test system: HCT-116 (colon) carcinoma cell line; assay: antiproliferative growth assay, HCT-116; assay type: cell-based, human; conditions: for IC50: HCT116 colon carcinoma cells; for potency against colon cancer relative to the standard reference (5-fluorouracil): HCT-116, compared with 5-fluorouracil
# [3] = test system: MCF7 (breast) carcinoma cell line; assay: antiproliferative growth assay, MCF7; assay type: cell-based, human
# MCF7 cells [4] = assay: apoptosis assay, Annexin V/PI; assay type: cell-based, human; conditions: 24 h
# Source text: It has been detected that the early and late apoptosis produced by the examined compound 10 certainly indicated its capability to induce significant levels of apoptosis with necrosis percent 3.14.
# MCF7 cells [5] = assay: cell cycle analysis by flow cytometry; assay type: cell-based, human; conditions: 24 hours
# Source text: Typical neoplastic cells evade apoptosis since accumulation of mutations block apoptosis pathways. It was confirmed that the induction of apoptosis upon effective cancer treatment. It is an important regulatory mechanism in cell growth, maturation and death and is associated with a variety of human diseases, including tumors. Chemotherapy agents may lead to an autophagic response, which is one possible method of inducing apoptosis. There is a unique association between autophagy and apoptosis. While chemotherapeutic drugs induce autophagy, cell cycle arrest and cell senescence, it is imperative the induction of apoptosis and permanent removal of neoplastic cells for effective cancer treatment. Studies on the effect of compound 10 on cell cycle development and induction of apoptosis in cancer MCF7 cells was carried out. […] The cells were analyzed by flow cytometry technique.
# [6] = Homo sapiens, MCF7, MCF7 breast carcinoma cells
IC50 ([1]; Homo sapiens),"IC50 ([2]; Homo sapiens, HCT-116)","IC50 [3, 6]",Molecule,other results
,,,"4-(5-(((1H-1,2,4-triazol-3-yl)amino) methylene)-3-benzoyl-4-oxothiazolidin-2-ylidene)amino)benzoic acid [Compound 11]",IC50 (EGFR): 0.0739 ± 0.0016 µM
,,,4-((3-benzoyl-5-(5-((4-chlorophenyl)diazenyl)-2-hydroxybenzylidene)-4-oxothiazolidin-2-ylidene)amino)benzoic acid [Compound 9c],IC50 [1]: > 100 µM; IC50 (EGFR): 0.168 ± 0.0036 µM; IC50 [2]: 19.6 µM; potency against colon cancer relative to the standard reference (5-fluorouracil) [2]: higher potency against colon cancer relative to the standard reference; IC50 ([3]; MCF7 breast carcinoma cells): 38 µM
,,,4-((3-benzoyl-5-((dimethylamino)methylene)-4-oxothiazolidin-2-ylidene)amino) benzoic acid [Compound 10],IC50 (EGFR): 0.0674 µM
> 100 µM,> 100 µM,> 100 µM,"O=C(O)c1ccc(/N=C2\SCC(=O)N2C(=O)c2ccccc2)cc1 [Compound 4, 4-((3-benzoyl-4-oxothiazolidin-2-ylidene)amino)benzoic acid]",
> 100 µM,> 100 µM,> 100 µM,"O=C(O)c1ccc(/N=C2\S/C(=C/c3ccccc3)C(=O)N2C(=O)c2ccccc2)cc1 [Compound 6a, 4-((3-benzoyl-5-(benzylidene)-4-oxothiazolidin-2-ylidene)amino)benzoic acid]",
> 100 µM,> 100 µM,> 100 µM,"O=C(O)c1ccc(/N=C2\S/C(=C/c3ccc(O)cc3)C(=O)N2C(=O)c2ccccc2)cc1 [Compound 6b, 4-((3-benzoyl-5-(4-hydroxybenzylidene)-4-oxothiazolidin-2-ylidene)amino)benzoic acid]",
> 100 µM,> 100 µM,> 100 µM,"O=C(O)c1ccc(/N=C2\S/C(=C/c3ccc(O)cc3O)C(=O)N2C(=O)c2ccccc2)cc1 [Compound 6c, 4-((3-benzoyl-5-(2,4-dihydroxybenzylidene)-4-oxothiazolidin-2-ylidene)amino) benzoic acid]",
> 100 µM,12.4 µM,,"COc1ccc(/C=C2/S/C(=N\c3ccc(C(=O)O)cc3)N(C(=O)c3ccccc3)C2=O)cc1 [Compound 6d, 4((3-benzoyl-5-(4-methoxybenzylidene)-4-oxothiazolidin-2-ylidene)amino) benzoic acid]",IC50 (EGFR): 0.134 ± 0.0029 µM; potency against colon cancer relative to the standard reference (5-fluorouracil) [2]: higher potency against colon cancer relative to the standard reference; IC50 ([3]; MCF7 breast carcinoma cells): 34.4 µM
> 100 µM,> 100 µM,> 100 µM,"COc1cc(/C=C2/S/C(=N\c3ccc(C(=O)O)cc3)N(C(=O)c3ccccc3)C2=O)cc(OC)c1 [Compound 6e, 4-((3-benzoyl-5-(3,5-dimethoxybenzylidene)-4-oxothiazolidin-2-ylidene)amino) benzoic acid]",
> 100 µM,> 100 µM,> 100 µM,"O=C(O)c1ccc(/N=C2\S/C(=C/c3ccc4ccccc4c3)C(=O)N2C(=O)c2ccccc2)cc1 [Compound 6g, 4-((3-benzoyl-5-(naphthalen-2-ylmethylene)-4-oxothiazolidin-2-ylidene)amino) benzoic acid]",
> 100 µM,> 100 µM,> 100 µM,"O=C(O)c1ccc(/N=C2\S/C(=C/c3c[nH]c4ccccc34)C(=O)N2C(=O)c2ccccc2)cc1 [Compound 6h, 4-((5-((1H-indol-3-yl)methylene)-3-benzoyl-4-oxothiazolidin-2-ylidene)amino) benzoic acid]",
> 100 µM,> 100 µM,> 100 µM,"CN(C)c1ccc(/C=C2/S/C(=N\c3ccc(C(=O)O)cc3)N(C(=O)c3ccccc3)C2=O)cc1 [Compound 6i, 4-((3-benzoyl-5-(4-(dimethylamino)benzylidene)-4-oxothiazolidin-2-ylidene)amino) benzoic acid]",
> 100 µM,> 100 µM,> 100 µM,"O=C(O)c1ccc(/N=C2\S/C(=C/c3cc(/N=N/c4ccccc4)ccc3O)C(=O)N2C(=O)c2ccccc2)cc1 [Compound 9a, 4-((3-benzoyl-5-(2-hydroxy-5-((E)-phenyldiazenyl)benzylidene)-4-oxothiazolidin-2-ylidene)amino) benzoic acid]",
> 100 µM,> 100 µM,> 100 µM,"COc1ccc(/N=N/c2ccc(O)c(/C=C3/S/C(=N\c4ccc(C(=O)O)cc4)N(C(=O)c4ccccc4)C3=O)c2)cc1 [Compound 9b, 4-((3-benzoyl-5-(2-hydroxy-5-((4-methoxyphenyl)diazenyl)benzylidene)-4-oxothiazolidin-2-ylidene)amino)benzoic acid]",
67.4 µM,12.2 µM,17.4 µM,"CN(C)/C=C1\S/C(=N\c2ccc(C(=O)O)cc2)N(C(=O)c2ccccc2)C1=O [Compound 10, 4-((3-benzoyl-5-((dimethylamino)methylene)-4-oxothiazolidin-2-ylidene)amino) benzoic acid]",Apoptosis Early (MCF7 cells [4]): 6.41%; Apoptosis Late (MCF7 cells [4]): 16.6%; Necrosis (MCF7 cells [4]): 3.14%; potency against colon cancer relative to the standard reference (5-fluorouracil) [2]: higher potency against colon cancer relative to the standard reference; Comment (cell cycle result) (MCF7 cells [5]): cell cycle arrest at G1/S phase; also recorded: PreGlapoptosis&Cell; % G0-G1 (MCF7 cells [5]; at IC50 concentration 12.17 μM): 38.71%; % G2/M (MCF7 cells [5]; at IC50 concentration 12.17 μM): 28.85%; % Pre-G1 (MCF7 cells [5]; at IC50 concentration 12.17 μM): 26.15%; % S (MCF7 cells [5]; at IC50 concentration 12.17 μM): 32.44%
98.5 µM,7.17 µM,11.7 µM,O=C(O)c1ccc(/N=C2\S/C(=C/Nc3nc[nH]n3)C(=O)N2C(=O)c2ccccc2)cc1 [Compound 11],Apoptosis Early (MCF7 cells [4]): 6.41%; Apoptosis Late (MCF7 cells [4]): 16.6%; Apoptosis Total (MCF7 cells [4]): 26.15%; Necrosis (MCF7 cells [4]): 3.14%; potency against colon cancer relative to the standard reference (5-fluorouracil) [2]: higher potency against colon cancer relative to the standard reference
